# Test results as given in PubChem BioAssay (NCI).
#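 All cell lines were grown in 96-well plates and treated with compound for 48 hours. GI50 marks 50% less growth. TGI denotes the concentration required for complete inhibition of growth.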
# Assays:
# Assay in all cases: DTP human tumour cell line panel, 48 h
# KM12 colon = test system: KM12 colon
# NCI/ADR-RES ovarian = test system: NCI/ADR-RES ovarian
# RXF 393 renal = test system: RXF 393 renal
# DU-145 prostate = test system: DU-145 prostate
# SF-268 CNS = test system: SF-268 CNS
# PC-3 prostate = test system: PC-3 prostate
# BT-549 breast = test system: BT-549 breast
# UACC-257 melanoma = test system: UACC-257 melanoma
# SN12C renal = test system: SN12C renal
# LOX IMVI melanoma = test system: LOX IMVI melanoma
Structure (SMILES),GI50 (KM12 colon) [µM],TGI (KM12 colon) [µM],GI50 (NCI/ADR-RES ovarian) [µM],TGI (NCI/ADR-RES ovarian) [µM],GI50 (RXF 393 renal) [µM],TGI (RXF 393 renal) [µM],GI50 (DU-145 prostate) [µM],TGI (DU-145 prostate) [µM],GI50 (SF-268 CNS) [µM],TGI (SF-268 CNS) [µM],GI50 (PC-3 prostate) [µM],TGI (PC-3 prostate) [µM],GI50 (BT-549 breast) [µM],TGI (BT-549 breast) [µM],GI50 (UACC-257 melanoma) [µM],TGI (UACC-257 melanoma) [µM],GI50 (SN12C renal) [µM],TGI (SN12C renal) [µM],GI50 (LOX IMVI melanoma) [µM],TGI (LOX IMVI melanoma) [µM]
COc1cc2c3c(c4c5ccccc5[nH]c4c2c(OC)c1OC)C(=O)N(CCN1CCCCC1)C3=O,1.02,2.59,0.892,3.19,0.502,1.89,1.22,2.54,1.15,2.96,1.22,2.64,4.6,13.4,2.79,9.62,1.1,2.54,1.05,2.45
O=C(CN1CCN(c2ccc(Cl)cc2)CC1)N1CCN(c2nnc(-c3ccccc3)c(-c3ccccc3)n2)CC1,4.04,> 100,5.4,> 100,15,> 100,> 100,> 100,> 100,> 100,3.1,> 100,3.14,> 100,26.6,> 100,8.23,> 100,7.26,> 100
COc1cc(NC(N)=NCCC(C)(C)c2ccc(C(F)(F)F)cc2)ncc1C#N,1.8,3.38,1.8,3.29,1.79,3.24,1.93,3.51,1.97,4.27,1.55,3.17,1.74,3.21,1.77,3.32,1.47,2.82,1.58,2.92
CC[C@]12CCCN3CC[C@]4(C(=C(C(=O)OC)C1)Nc1ccccc14)[C@@H]32,16.7,39.1,14.3,33.4,15.5,30.4,16.8,35.2,18,37.8,20.5,61.5,19.8,46.7,16.7,42.2,16.4,33.2,14.3,27.5
Cc1nn(-c2ccc(Br)cc2)c(C)c1CC(=O)c1cc(O)ccc1O,5.91,> 50,11.2,45.6,9.01,27.8,14.8,44.6,5.6,17.6,9.97,> 50,15.8,38.4,11.2,26.6,6.79,16.6,4.13,13.9
O=C(CCl)Nc1ccc2c(c1)C(=O)c1ccc(NC(=O)CCl)cc1C2=O,1.06,2.42,0.352,1.78,0.288,0.928,1.41,3.45,0.386,1.92,0.876,2.5,0.22,0.857,1.8,4.87,0.35,1.76,0.0935,0.229
CCCN1CCN(c2ccc3nc(-c4ccc5nc(-c6ccc(OCC)c(OCC)c6)[nH]c5c4)[nH]c3c2)CC1,0.684,2.08,> 100,> 100,0.27,0.83,0.436,1.75,1.6,6.1,0.381,1.92,1.13,2.61,0.64,2.47,0.526,2.14,0.198,0.461
Nc1nc2c(c3cnccc13)C(c1cccc(Cl)c1)Cc1cnccc1-2 (stereo not given),0.409,12.2,0.237,0.663,0.268,0.765,0.309,4.65,0.741,16.5,0.439,1.66,0.482,4.21,4.36,22.5,0.668,14.4,0.373,11.2
